Read-outs that look alike come from different tables or passages of the source.
Key:
[1] = test system: adipocytes (3T3-L1) and myotubes (C2C12); test: Fatty acid oxidation and dose-response screening, cell type not stated; type: cell-based, mouse; conditions: for synergy with leucine or HMB in stimulating fatty acid oxidation: compound at its no-effect concentration with leucine 0.5 mM or HMB 5 μM
C2C12 myotubes = test: Glucose utilization (extracellular acidification response to glucose) in myotubes; type: cell-based, mouse
Sirt3 = molecular target: T1, Sirt3 (Mus musculus, UniProt Q8R104); test: Sirt3 stimulation; type: cell-based; conditions: leucine 0.5 mM, HMB 5 μM, resveratrol 200 nM
T1 construct: endogenous in cells; host or cells: 3T3-L1 adipocytes and/or C2C12 myotubes (inferred)
T1 sequence (Q8R104 1-334): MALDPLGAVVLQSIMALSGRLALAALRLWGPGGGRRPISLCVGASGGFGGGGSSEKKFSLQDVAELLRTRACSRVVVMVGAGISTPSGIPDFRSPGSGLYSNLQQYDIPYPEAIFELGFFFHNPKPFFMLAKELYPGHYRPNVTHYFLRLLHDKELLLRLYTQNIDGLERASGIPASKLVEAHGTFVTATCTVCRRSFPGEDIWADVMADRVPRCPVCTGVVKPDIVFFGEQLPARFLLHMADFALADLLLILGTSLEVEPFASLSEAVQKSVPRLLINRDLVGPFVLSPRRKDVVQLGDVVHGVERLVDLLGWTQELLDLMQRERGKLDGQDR

[2] = test system: LDL receptor knockout mice; test: LDL receptor knockout mice on western diet: plasma lipids, atherosclerosis, macrophage infiltration (Example 7); type: in vivo, mouse
Description: LDL receptor knockout (LDLRKO) mice were obtained from Jackson Laboratories (Bar Harbor, Me.), and housed in groups under room temperature in a humidity-controlled environment with a regular light and dark cycle. The mice were provided free access to an atherogenic western diet (WD) containing 0.21% cholesterol (by weight) and 40% calories from fat and water for 4 weeks prior to treatment. For treatment, the mice were given (a) the WD diet alone, (b) WD and 24 g of leucine/kg diet, (c) WD and 24 g of leucine/kg diet and 50 mg nicotinic acid/kg diet, (d) WD and 24 g of leucine/kg diet and 250 mg nicotinic acid/kg diet, or (e) WD and 1000 mg nicotinic acid/kg diet; this is approximately equivalent to a low therapeutic dose of nicotinic acid in hypercholesterolemic humans (˜1,500 mg/day). The treatments were administered for eight weeks continuously.
Blood samples of the mice in all groups were obtained from tails of the mice at following four and eight weeks of administration. The serum/plasma levels of triglyceride, total cholesterol and cholesterol esters were measured. Following treatment, food was removed for four hours and the animals were euthanized.
Blood was collected into EDTA-coated tubes to analyze plasma lipid and cholesterol profiles. Plasma total cholesterol (TC, Pointe Scientific, Canton, Mich.), free cholesterol (FC, Wako, Richmond, Va.) and triglyceride (TG, Wako, Richmond, Va.) concentrations were measured using enzymatic assays according to manufacturer's instructions. Cholesterol ester (CE) was calculated as the difference between TC and FC.
To assess atherosclerosis, the circulatory system was perfused following euthanasia with phosphate-buffered saline (PBS) before removing the heart and aorta. The upper one-third of the heart was dissected and embedded in Optimal Cutting Temperature Compound (Sakura Tissue-Tek, Torrance, Calif.), frozen, and stored at −80° C. Blocks were serially cut at 8 μm intervals and stained with hematoxylin and 0.5% Oil Red O (Sigma-Aldrich) to evaluate aortic sinus atherosclerotic intimal area. Atherosclerotic lesion area and Oil Red O positive area were quantified using Image-Pro Plus software (Media Cybernetics, Bethesda, Md.). Whole aorta (from sinotubular junction to iliac bifurcate) was dissected and fixed in 10% formalin, and the adventitia was cleaned. Aortas were opened along the longitudinal axis and pinned onto black silicon elastomer (Rubber-Cal, Santa Ana, Calif.) for the quantification of atherosclerotic lesion area. The percentage of total aortic surface covered with atherosclerotic lesions was quantified by Image-Pro Plus software (Media Cybernetics, Bethesda, Md.) and used to determine the total lesion area.
To assess macrophage infiltration, Sections of aortic sinus were immuno-stained with rat monoclonal antibody against macrophage-specific CD68 (Clone FA11, 1:75, AbD Serotec, Raleigh, N.C.) followed by staining with alkaline phosphatase-conjugated mouse anti-rat (for CD68, 1:50) secondary antibodies (Jackson ImmunoResearch laboratories, West Grove, Pa.). Control slides contain no primary antibody. The CD68-positive areas were analyzed using Image-Pro Plus software (Media Cybernetics, Bethesda, Md.).

Caenorhabditis elegans = test: Lifespan of C. elegans (Example 10); type: in vivo; conditions: basal conditions; leucine 0.5 mM, nicotinic acid 10 nM
Experimental: Eggs were hatched on a starved plate overnight. […] All treatments were added with the indicated concentrations to E. coli the agar plates. […] The worms were maintained at 20° C. throughout the duration of the study. Worms were transferred to new plates daily to eliminate progeny. […] The study was continued until the last animal was dead. Data were analyzed via Kaplan-Meier survival curves using Prism 6 (GraphPad Software) and statistical significance was determined by the Log-rank (Mantel-Cox) test.

[3] = test system: diet-induced obesity mice; test: High fat diet-induced obese, insulin resistant mice: GTT, ITT, glucose, insulin, HOMAIR, muscle Western blot (Example 12); type: in vivo, C57/BL6 mice; conditions: HFD, no metformin; for glucose tolerance test (fasting and post-prandial hyperglycemia): Leu 24 g/kg diet with or without Res 12.5 mg/kg diet
diabetic db/db mice = conditions: for decrease in blood glucose over the 30 minute linear portion of the insulin tolerance test: insulin 0.75 U/kg
[4] = high dose metformin 300 mg/kg bw

O=C(O)/C=C/c1ccc(O)c(O)c1 [Caffeic acid]
concentrations that exert no effect (dose-response curves; sub-therapeutic dose) ([1]; compound alone): ≤ 1000 nM

O=C(O[C@@H]1Cc2c(O)cc(O)cc2O[C@@H]1c1cc(O)c(O)c(O)c1)c1cc(O)c(O)c(O)c1 [EGCG, epigallocatechin gallate]
direct stimulation of fatty acid oxidation ([1]; compound alone): minimally active | synergy with leucine or HMB in stimulating fatty acid oxidation [1]: do not detect synergistic effects | increase in glucose utilization in myotubes (C2C12 myotubes; extracellular acidification response to glucose, concentrations as in E26): no independent effect

O=c1oc2c(O)c(O)cc3c(=O)oc4c(O)c(O)cc1c4c23 [Ellagic acid]
activity in dose-response curves ([1]; even at high concentrations (50 μM)): little activity

CC(C)Cn1c(=O)n(C)c(=O)c2[nH]cnc21 [IBMX, 3-isobutyl-1-methylxanthine, reference compound]
synergy with leucine or HMB in stimulating fatty acid oxidation [1]: weak but statistically significant synergy with HMB, but not leucine

CC(C)C[C@H](N)C(=O)O [Leucine, leucine]
increase in insulin-stimulated glucose utilization (C2C12 myotubes; C2C12 myotubes, 5 nM insulin, galegine 5 μM, leucine 0.5 mM): no effect | stimulation of Sirt3 (Sirt3): no independent effects | decrease in aortic macrophage infiltration (CD68 positive area) ([2]; eight weeks, doses as E77): significant independent effect | decrease in atherosclerotic lesion size (lesion and lipid area) ([2]; eight weeks, nicotinic acid 1,000 mg/kg diet, leucine 24 g/kg diet, or leucine + nicotinic acid 50 mg/kg diet, vs western diet alone): exerted an independent effect | decrease in plasma cholesterol esters ([2]; four weeks, doses as E73): no independent effect | decrease in plasma total cholesterol ([2]; four weeks, western diet + nicotinic acid 1,000 mg/kg diet, leucine 24 g/kg diet, or leucine + nicotinic acid 50 or 250 mg/kg diet): no independent effect | effect on lifespan (Caenorhabditis elegans): no independent effect | glucose tolerance test (fasting and post-prandial hyperglycemia) [3]: not significantly affected | glucose tolerance test (fasting and post-prandial hyperglycemia) ([3]; listed as leucine): no independent effect | insulin tolerance test ([3]; Leu 24 g/kg diet): no independent effect

OC[C@@H](O)[C@@H](O[C@H]1O[C@H](CO)[C@@H](O)[C@H](O)[C@H]1O)[C@H](O)[C@@H](O)CO [Maltitol]
concentrations that exert no effect (dose-response curves; sub-therapeutic dose) ([1]; compound alone): ≤ 100 nM | synergy with leucine or HMB in stimulating fatty acid oxidation [1]: no synergy

CN(C)C(=N)N=C(N)N [Metformin]
reduction of plasma insulin (diabetic db/db mice; db/db mice, 2 weeks, high dose metformin 300 mg/kg bw (1.5 g/kg diet)): 27% | effect on plasma glucose (diabetic db/db mice; [4]): no significant effect | effects on body composition (diabetic db/db mice; [4]): no significant effects | plasma insulin (diabetic db/db mice; high dose metformin 300 mg/kg bw, control 62): 45 uU/mL | effects on any variable studied (diabetic db/db mice; low dose (150 mg/kg) and very low dose (50 mg/kg) metformin alone): no significant independent effects | decrease in blood glucose over the 30 minute linear portion of the insulin tolerance test (diabetic db/db mice; low or very low dose of metformin, alone or as blend): minimal changes | effect on visceral fat mass (diabetic db/db mice; metformin at any dosage in the absence of HMB): not affected | decrease in blood glucose over the 30 minute linear portion of the insulin tolerance test (diabetic db/db mice; standard metformin dose (1.5 g/kg diet)): ~60 mg/dL

O[C@H]1[C@H](O)[C@@H](O)[C@H](O)[C@@H](O)[C@H]1O [Myo-inositol]
synergy with leucine or HMB in stimulating fatty acid oxidation [1]: no synergy

OC[C@@H](O)[C@@H](O)[C@H](O)[C@@H](O)CO [Sorbitol]
synergy with leucine or HMB in stimulating fatty acid oxidation [1]: no synergy

Cn1c(=O)c2[nH]cnc2n(C)c1=O [Theophylline, reference compound]
concentrations that exert no effect (dose-response curves; sub-therapeutic dose) ([1]; compound alone): below 1 μM

Fucoxanthin
concentrations that exert no effect (dose-response curves; sub-therapeutic dose) ([1]; compound alone): ≤ 100 nM
